Each block holds one compound with its values, some of them ahead of it. Active and inactive are the calls of the source. No cut-off for these calls is given here.
Columns and labels:
[1] = system: NCI-H460; assay: Inhibition of DMBA-induced CYP1B1 overexpression in human NCI-H460 cells assessed as increase in snail level incubated for 24 hrs by densitometry analysis; assay type: functional, cell-based; conditions: dose 5.0 µM
[2] = system: A549/Taxol; assay: Inhibition of AKT pathway in human A549/Taxol cells assessed as decrease in phosphorylated AKT level at 5 uM incubated for 24 hrs; assay type: cell-based
[3] = system: A549; assay: Inhibition of cell invasion in DMBA-induced human A549 cells at 5 uM by optical microscopic analysis; assay type: functional, cell-based
[4] = target: Mitogen-activated protein kinase; ERK1/ERK2 (Homo sapiens) (UniProt P27361+P28482); assay: Inhibition of ERK1/2 pathway in human A549/Taxol cells assessed as decrease in phosphorylated ERK1/2 level at 5 uM incubated for 24 hrs; assay type: cell-based
[5] = system: NCI-H460; assay: Upregulation of DMBA-induced CYP1B1 expression level in human NCI-H460 cells at 5 uM incubated for 24 hrs; assay type: functional, cell-based
[6] = system: A549; assay: Inhibition of DMBA-induced CYP1B1 overexpression in human A549 cells assessed as decrease in E-cadherin level incubated for 24 hrs by densitometry analysis; assay type: functional, cell-based; conditions: dose 5.0 µM
[7] = system: A549; assay: Inhibition of DMBA-induced CYP1B1 overexpression in human A549 cells assessed as effect on MMP-9 level at 5 uM incubated for 24 hrs by densitometry analysis; assay type: functional, cell-based
[8] = system: A549/TR; assay: Reversal of taxol resistance human A549/Taxol cells assessed as increase in sensitivity incubated for 72 hrs by MTT assay; assay type: functional, cell-based
[9] = target: T1, Cytochrome P450 1A2 (Homo sapiens, UniProt P05177); assay: Inhibition of recombinant human CYP1A2 using 7-ethyl-0-resorufin as substrate incubated for 30 mins in presence of NADPH by EROD assay
T1 sequence (P05177 whole entry): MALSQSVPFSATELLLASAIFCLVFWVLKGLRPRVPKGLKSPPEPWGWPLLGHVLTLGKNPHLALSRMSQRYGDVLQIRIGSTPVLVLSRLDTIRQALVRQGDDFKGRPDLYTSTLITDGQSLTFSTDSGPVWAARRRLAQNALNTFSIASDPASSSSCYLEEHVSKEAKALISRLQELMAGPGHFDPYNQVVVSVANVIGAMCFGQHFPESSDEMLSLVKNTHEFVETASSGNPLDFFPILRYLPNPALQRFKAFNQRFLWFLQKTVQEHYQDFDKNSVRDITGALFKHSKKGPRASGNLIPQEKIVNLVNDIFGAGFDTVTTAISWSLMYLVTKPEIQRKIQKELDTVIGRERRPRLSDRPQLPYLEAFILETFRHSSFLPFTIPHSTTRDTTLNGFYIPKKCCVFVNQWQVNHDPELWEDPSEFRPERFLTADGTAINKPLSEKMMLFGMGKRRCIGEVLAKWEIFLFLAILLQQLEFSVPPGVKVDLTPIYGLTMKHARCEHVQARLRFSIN

[10] = system: A549; assay: Inhibition of DMBA-induced CYP1B1 overexpression in human A549 cells assessed as supression of FAK pathway at 5 uM incubated for 24 hrs by densitometry analysis; assay type: functional, cell-based
[11] = system: A549; assay: Inhibition of DMBA-induced CYP1B1 overexpression in human A549 cells assessed as decrease in Vimentin level at 5 uM incubated for 24 hrs by densitometry analysis; assay type: functional, cell-based
[12] = target: Proto-oncogene tyrosine-protein kinase Src (Homo sapiens) (UniProt P12931); assay: Inhibition of SRC pathway in human A549/Taxol cells assessed as decrease in phosphorylated FAK level at 5 uM incubated for 24 hrs; assay type: cell-based
[13] = system: A549; assay: Inhibition of DMBA-induced CYP1B1 overexpression in human A549 cells assessed as increase in Vimentin level incubated for 24 hrs by densitometry analysis; assay type: functional, cell-based; conditions: dose 5.0 µM
[14] = system: NCI-H460; assay: Inhibition of DMBA-induced CYP1B1 overexpression in human NCI-H460 cells assessed as increase in Paxillin level incubated for 24 hrs by densitometry analysis; assay type: functional, cell-based; conditions: dose 5.0 µM
[15] = system: NCI-H460; assay: Inhibition of DMBA-induced CYP1B1 expression level in human NCI-H460 cells at 5 uM incubated for 24 hrs; assay type: functional, cell-based
[16] = system: NCI-H460; assay: Inhibition of DMBA-induced CYP1B1 overexpression in human NCI-H460 cells assessed as effect on MMP-9 level at 5 uM incubated for 24 hrs by densitometry analysis; assay type: functional, cell-based
[17] = system: NCI-H460; assay: Inhibition of DMBA-induced CYP1B1 overexpression in human NCI-H460 cells assessed as increase in FAK level incubated for 24 hrs by densitometry analysis; assay type: functional, cell-based; conditions: dose 5.0 µM
[18] = system: A549; assay: Downregulation of DMBA-induced CYP1B1 expression level in human A549 cells at 5 uM incubated for 24 hrs; assay type: functional, cell-based
[19] = system: A549; assay: Inhibition of DMBA-induced CYP1B1 overexpression in human A549 cells assessed as increase in SRC level incubated for 24 hrs by densitometry analysis; assay type: functional, cell-based; conditions: dose 5.0 µM
[20] = system: A549; assay: Inhibition of DMBA-induced cell migration in human A549 cells incubated for 48 hrs by inverted microscopic analysis; assay type: functional, cell-based; conditions: dose 5.0 µM
[21] = system: NCI-H460; assay: Inhibition of DMBA-induced AKT overexpression in human taxol resistance NCI-H460 cells incubated for 24 hrs; assay type: functional, cell-based; conditions: dose 5.0 µM
[22] = system: A549; assay: Inhibition of DMBA-induced CYP1B1 overexpression in human A549 cells assessed as effect on E-cadherin level at 5 uM incubated for 24 hrs by densitometry analysis; assay type: functional, cell-based
[23] = system: A549/TR; assay: Synergistic antiproliferative activity against human A549/Taxol cells assessed as increase in taxol by measuring combination index at 7.50 uM incubated for 72 hrs in presence of 1 uM taxol by MTT assay; assay type: functional; conditions: dose 7.5 µM
[24] = system: A549/TR; assay: Synergistic antiproliferative activity against human A549/Taxol cells assessed as increase in taxol by measuring combination index at 15 uM incubated for 72 hrs in presence of 1 uM taxol by MTT assay; assay type: functional
[25] = system: A549/TR; assay: Inhibition of cell migration in human A549/Taxol cells incubated for 36 hrs; assay type: functional, cell-based; conditions: dose 2.5-10 µM
[26] = target: Focal adhesion kinase 1 (Homo sapiens) (UniProt Q05397); assay: Inhibition of FAK pathway in human A549/Taxol cells assessed as decrease in phosphorylated FAK level at 2.5 to 5 uM incubated for 24 hrs; assay type: cell-based; conditions: dose 2.5-5 µM
[27] = system: A549/TR; assay: Synergistic antiproliferative activity against human A549/Taxol cells assessed as increase in taxol by measuring combination index at 15 uM incubated for 72 hrs in presence of 0.06 uM taxol by MTT assay; assay type: functional
[28] = target: Proto-oncogene tyrosine-protein kinase Src (Homo sapiens) (UniProt P12931); assay: Inhibition of SRC pathway in human A549/Taxol cells assessed as decrease in phosphorylated FAK level at 2.5 to 5 uM incubated for 24 hrs; assay type: cell-based; conditions: dose 2.5-5 µM
[29] = system: A549/TR; assay: Reversal of taxol resistance human A549/Taxol cells assessed as increase in sensitivity at 5 uM incubated for 72 hrs by MTT assay; assay type: functional, cell-based
[30] = system: A549; assay: Inhibition of DMBA induced taxol resistance in human A549 cells; assay type: functional, cell-based; conditions: dose 2.5-10 µM
[31] = system: A549/TR; assay: Synergistic antiproliferative activity against human A549/Taxol cells assessed as increase in taxol by measuring combination index at 30 uM incubated for 72 hrs in presence of 0.50 uM taxol by MTT assay; assay type: functional
[32] = system: A549/TR; assay: Inhibition of cell invasion in human A549/Taxol cells at 2.5 to 10 uM incubated for 18 hrs by optical microscopic analysis; assay type: functional, cell-based; conditions: dose 2.5-10 µM
[33] = system: A549/Taxol; assay: Inhibition of AKT pathway in human A549/Taxol cells assessed as decrease in phosphorylated AKT level at 2.5 to 5 uM incubated for 24 hrs; assay type: cell-based; conditions: dose 2.5-5 µM

Proto-oncogene tyrosine-protein kinase Src (Homo sapiens), sequence (P12931 2-536 limits assumed): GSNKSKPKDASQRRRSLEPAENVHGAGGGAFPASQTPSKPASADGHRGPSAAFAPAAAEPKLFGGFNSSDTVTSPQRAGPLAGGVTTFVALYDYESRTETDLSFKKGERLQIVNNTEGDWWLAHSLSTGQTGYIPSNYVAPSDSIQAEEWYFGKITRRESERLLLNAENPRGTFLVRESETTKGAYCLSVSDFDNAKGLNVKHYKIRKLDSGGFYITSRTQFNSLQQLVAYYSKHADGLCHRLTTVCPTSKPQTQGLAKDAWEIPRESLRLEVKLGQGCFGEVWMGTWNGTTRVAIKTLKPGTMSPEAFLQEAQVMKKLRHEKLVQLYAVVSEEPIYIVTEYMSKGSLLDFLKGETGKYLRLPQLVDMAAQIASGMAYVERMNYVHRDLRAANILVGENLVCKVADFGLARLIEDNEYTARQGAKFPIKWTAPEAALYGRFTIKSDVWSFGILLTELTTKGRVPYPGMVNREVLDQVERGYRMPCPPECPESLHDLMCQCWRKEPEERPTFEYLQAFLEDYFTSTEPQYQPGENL
Focal adhesion kinase 1 (Homo sapiens), sequence (Q05397 2-1052 limits assumed): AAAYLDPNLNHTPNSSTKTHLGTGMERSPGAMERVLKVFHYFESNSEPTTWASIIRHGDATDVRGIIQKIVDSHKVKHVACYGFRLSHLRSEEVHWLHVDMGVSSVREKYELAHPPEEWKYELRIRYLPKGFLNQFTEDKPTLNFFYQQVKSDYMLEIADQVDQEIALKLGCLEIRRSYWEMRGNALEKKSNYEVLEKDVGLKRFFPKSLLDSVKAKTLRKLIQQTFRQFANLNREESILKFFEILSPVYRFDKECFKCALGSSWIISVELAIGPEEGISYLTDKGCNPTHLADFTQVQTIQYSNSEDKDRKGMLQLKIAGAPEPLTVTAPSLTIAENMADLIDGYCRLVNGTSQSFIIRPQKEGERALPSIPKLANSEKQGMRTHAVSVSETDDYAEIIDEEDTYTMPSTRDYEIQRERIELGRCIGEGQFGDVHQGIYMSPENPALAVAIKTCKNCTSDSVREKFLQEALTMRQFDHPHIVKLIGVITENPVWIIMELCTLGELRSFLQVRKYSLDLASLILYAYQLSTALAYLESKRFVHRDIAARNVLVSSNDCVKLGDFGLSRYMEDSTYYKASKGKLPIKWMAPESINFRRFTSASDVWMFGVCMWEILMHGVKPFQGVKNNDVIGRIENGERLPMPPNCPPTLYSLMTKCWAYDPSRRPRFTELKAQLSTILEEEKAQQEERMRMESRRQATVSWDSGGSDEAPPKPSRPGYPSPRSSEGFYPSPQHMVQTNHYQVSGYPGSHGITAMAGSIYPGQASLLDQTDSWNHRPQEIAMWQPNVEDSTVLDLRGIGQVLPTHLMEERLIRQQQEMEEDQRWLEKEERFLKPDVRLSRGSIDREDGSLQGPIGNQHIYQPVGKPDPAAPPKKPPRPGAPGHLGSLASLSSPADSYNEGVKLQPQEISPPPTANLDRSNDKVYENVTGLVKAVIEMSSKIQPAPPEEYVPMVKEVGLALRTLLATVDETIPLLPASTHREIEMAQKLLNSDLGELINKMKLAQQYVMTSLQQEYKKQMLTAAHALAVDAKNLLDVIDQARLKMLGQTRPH
Mitogen-activated protein kinase; ERK1/ERK2 (Homo sapiens), sequence (P27361 whole entry, looked up): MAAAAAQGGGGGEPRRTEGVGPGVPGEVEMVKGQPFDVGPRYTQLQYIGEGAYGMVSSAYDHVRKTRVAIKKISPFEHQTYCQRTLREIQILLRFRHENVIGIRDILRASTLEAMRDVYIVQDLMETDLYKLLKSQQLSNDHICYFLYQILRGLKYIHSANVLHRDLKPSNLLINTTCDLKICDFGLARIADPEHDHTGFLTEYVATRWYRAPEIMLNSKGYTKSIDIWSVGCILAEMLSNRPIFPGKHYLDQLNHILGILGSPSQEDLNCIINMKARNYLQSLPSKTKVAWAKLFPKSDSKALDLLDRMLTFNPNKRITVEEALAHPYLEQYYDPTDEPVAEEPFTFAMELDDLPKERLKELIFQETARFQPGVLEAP
Mitogen-activated protein kinase; ERK1/ERK2 (Homo sapiens), sequence (P28482 whole entry, looked up): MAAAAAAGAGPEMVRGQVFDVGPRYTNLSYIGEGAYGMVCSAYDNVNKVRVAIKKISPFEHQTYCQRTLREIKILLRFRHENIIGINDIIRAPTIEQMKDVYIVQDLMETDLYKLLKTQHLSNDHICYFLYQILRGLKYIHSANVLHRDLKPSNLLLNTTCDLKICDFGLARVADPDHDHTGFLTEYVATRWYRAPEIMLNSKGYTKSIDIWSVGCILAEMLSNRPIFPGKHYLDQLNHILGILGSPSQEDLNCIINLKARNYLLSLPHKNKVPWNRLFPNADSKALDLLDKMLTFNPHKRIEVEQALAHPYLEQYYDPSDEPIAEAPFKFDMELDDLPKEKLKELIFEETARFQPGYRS

inhibition [4]: Active
IC50 [9]: 2.39 µM
inhibition [12]: Active
Structure (SMILES): COc1cc(/C=C/c2ccc(OC)cc2OC)cc(OC)c1
inhibition [1]: Dose-Dependent Effect
inhibition [2]: Active
inhibition [3]: Active
Activity [5]: inactive
inhibition [6]: Dose-Dependent Effect
inhibition [7]: inactive
Activity [8]: Active
inhibition [10]: Active
inhibition [11]: inactive
inhibition [13]: Dose-Dependent Effect
inhibition [14]: Dose-Dependent Effect
inhibition [15]: Active
inhibition [16]: inactive
inhibition [17]: Dose-Dependent Effect
Activity [18]: inactive
inhibition [19]: Dose-Dependent Effect
inhibition [20]: Dose-Dependent Effect
inhibition [21]: Dose-Dependent Effect
inhibition [22]: inactive

inhibition [26]: Active
inhibition [28]: Active
Structure (SMILES): COc1cc(Nc2nc(-c3nc(-c4ccccc4F)cs3)cs2)cc(OC)c1
CI [23]: 1.36
CI [24]: 0.71
inhibition [25]: Dose-Dependent Effect
CI [27]: 0.2
Activity [29]: Active
inhibition [30]: Dose-Dependent Effect
Activity [8]: Active
CI [31]: 0.2
inhibition [32]: Dose-Dependent Effect
inhibition [33]: Active

From ChEMBL document CHEMBL5236635, “Structure-Based Drug Design and Synthesis of Novel N-Aryl-2,4-bithiazole-2-amine CYP1B1-Selective Inhibitors in Overcoming Taxol Resistance in A549 Cells” (J Med Chem, 2022)
